Measured values reported in US20260184710A1, “CASITAS B-LINEAGE LYMPHOMA PROTOONCOGENE B (CBL-B) DEGRADING COMPOUNDS AND ASSOCIATED METHODS OF USE” (Arvinas Operations, Inc., priority 2022, published 2026).

Assays:
Cbl-b [1] = biological target: T1, Cbl-b (Homo sapiens, UniProt Q13191); test: Cbl-b Degradation Method A (FACS, anti-Cbl-b antibody staining); type: cell-based; conditions: Cbl-b-HiBit KI Jurkat Cells, incubated at least 20 hours; for DC50: half maximal degradation, read-out: Cbl-b Degredation Method A IC50; for Dmax: Jurkat, maximum degradation observed, read-out: Cbl-b Degredation Method A Dmax (%)
T1 construct: Cbl-b-HiBit KI Jurkat Cells were purchased from Promega; host or cells: Cbl-b-HiBiT knock-in Jurkat cells
T1 sequence (Q13191 whole entry): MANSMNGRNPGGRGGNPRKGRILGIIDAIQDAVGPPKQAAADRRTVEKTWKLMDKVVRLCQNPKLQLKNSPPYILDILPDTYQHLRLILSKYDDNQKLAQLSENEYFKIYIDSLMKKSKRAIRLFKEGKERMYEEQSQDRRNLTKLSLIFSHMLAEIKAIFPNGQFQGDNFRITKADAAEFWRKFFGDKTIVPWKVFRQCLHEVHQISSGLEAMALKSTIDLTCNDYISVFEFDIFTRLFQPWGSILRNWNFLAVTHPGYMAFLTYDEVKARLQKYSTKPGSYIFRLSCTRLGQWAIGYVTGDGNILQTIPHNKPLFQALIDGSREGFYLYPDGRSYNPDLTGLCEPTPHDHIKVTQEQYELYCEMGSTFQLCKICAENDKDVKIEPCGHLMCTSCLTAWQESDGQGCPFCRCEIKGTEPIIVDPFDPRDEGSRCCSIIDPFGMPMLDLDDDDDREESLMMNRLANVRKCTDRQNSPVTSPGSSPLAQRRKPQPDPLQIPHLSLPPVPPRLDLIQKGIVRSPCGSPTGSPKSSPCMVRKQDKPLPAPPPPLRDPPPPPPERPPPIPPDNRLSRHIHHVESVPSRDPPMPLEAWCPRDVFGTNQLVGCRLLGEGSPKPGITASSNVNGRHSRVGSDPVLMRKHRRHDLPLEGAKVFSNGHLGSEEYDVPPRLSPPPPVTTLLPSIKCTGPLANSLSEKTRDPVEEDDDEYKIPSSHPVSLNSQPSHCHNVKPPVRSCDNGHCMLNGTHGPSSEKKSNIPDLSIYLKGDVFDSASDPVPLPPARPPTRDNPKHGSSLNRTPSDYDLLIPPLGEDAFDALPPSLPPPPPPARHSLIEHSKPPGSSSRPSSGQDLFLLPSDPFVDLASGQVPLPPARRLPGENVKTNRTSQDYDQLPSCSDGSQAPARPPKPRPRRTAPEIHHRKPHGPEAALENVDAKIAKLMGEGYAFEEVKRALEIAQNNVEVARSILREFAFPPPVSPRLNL
Method: Cbl-b Degradation Method A
Cbl-b-HiBit KI Jurkat Cells were purchased from Promega, and cell media consisted of RPMI 1640 with 10% FBS and 1% pen/strep. The cells were counted, measured for viability, and 100 μL of the cell solution was into 96 well flat bottom plates at a ratio of 290,000 cells per 100 μL. Compounds were dissolved in DMSO to make a 10 mM stock solution, which was diluted with cell media. 100 μL of the diluted compound mixture was added to the wells. The plate was incubated for at least 20 hours at 37° C. and 5% CO2. After incubation, the plate was shaken at 700-750 RMP for 15-30 minutes to ensure cells were removed from the wells. The wells were transferred to a 96-well v-bottom plate and spun for 2200 RPM for 3 minutes. The supernatant was removed, cells re-suspended in 100 μL of the fixative, and subsequently incubated at room temperature for 15 minutes. Afterwards, 150 μL of DPBS was added to each well, and the cells were centrifuged at 2500 RPM for 3 minutes. The supernatant was removed and the plate was chilled on ice for 2-3 minutes. While still on the ice, 100 μL of Perm III was added to each well, the wells mixed, and subsequently left on the ice for another 15 minutes. Afterwards, the plate was removed from the ice, 150 μL of DBPS was added to each well, and the cells centrifuged at 2700 RPM for 3 minutes. The supernatant was removed, and an additional 200 μL of was DPBS was added to each well, followed by centrifuging at 2700 RPM for 3 minutes, after which the supernatant was removed. The anti-Cbl-b antibody was diluted 1:200 in 1× Perm Wash buffer and 50 μL of the antibody mixture was added to each well and mixed. After addition, the plate was incubated for 35-45 minutes at room temperature. After incubation, 200 μL of DPBS was added to each wells, and the plate centrifuged at 2700 RPM for 3 minutes, followed by the removal of the supernatant. The washing step was repeated by adding 200 μL of DPBS to each wells followed by centrifuge at 2700 RPM for 3 minutes and removal of the supernatant. The a-Rabbit-AF488 antibody was diluted 1:1000 in Perm Wash buffer, 50 μL of the dilution added to each well, and mixed. After mixing, the plate was incubated for 30 minutes at room temperature in the dark. Subsequently, the supernatant was removed, and 200 μL of DBPS added to the cells, which were then centrifuged at 2900 RPM for 4 minutes. The supernatant was removed, and an additional 95 μL of DBPS was added to the wells and mixed. The cells were then transferred to a round bottom polypropylene plate and analyzed using FACS with the parameters below:
The concentration of an exemplary compound that leads to half maximal degradation (DC50) as well as the maximum degradation observed (Dmax, conventionally expressed as a percentage of control) is shown below in Table 2.

Cbl-b [2] = biological target: T1, Cbl-b; test: Cbl-b Degradation Method B (Nano-Glo HiBiT lytic detection); type: cell-based; conditions: Cbl-b-HiBit KI Jurkat Cells, incubated at least 6-24 hours; for DC50: half maximal degradation, read-out: Cbl-b Degredation Method B IC50
Outline: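 Cbl-b-HiBiT knock-in Jurkat cells (20,000/well) were treated after ~24 h plating with an 11-point 1:3 series for 6-24 h at 37° C. Remaining Cbl-b measured by Nano-Glo HiBiT lytic luminescence. DC50 and Dmax expressed as % of control.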

Row | DC50 (Cbl-b [1]) [µM] | Dmax (Cbl-b [1]) [%] | DC50 (Cbl-b [2]) [µM] | Dmax (Cbl-b [2]; maximum degradation observed, read-out: Cbl-b Degredation Method B Dmax (%)) [%] | Compound
1 | < 0.005 | > 70 | – | – | Cn1cnnc1CC1(c2cccc(N3Cc4c(cc(N5CC6(CCN(C[C@H]7CC[C@H](OC8CCN(c9ccc%10c(c9F)CN(C9CCC(=O)NC9=O)C%10=O)CC8)CC7)CC6)C5)cc4C(F)(F)F)C3=O)c2)COC1 (some centres unmarked) [Example 7, 3-[4-fluoro-1-oxo-5-(4-{[(1r, 4r)-4-({2-[2-(3-{3-[(4-methyl-4H-1,2,4-triazol-3-yl)methyl]oxetan-3-yl}phenyl)-3-oxo-7-(trifluoromethyl)-2,3-dihydro-1H-isoindol-5-yl]-2,7-diazaspiro [3.5]nonan-7-yl}methyl)cyclohexyl]oxy}piperidin-1-yl)-2,3-dihydro-1H-isoindol-2-yl]piperidine-2,6-dione]
2 | < 0.005 | 35 to 70 | – | – | Cc1cc(N2CCC(O[C@H]3CC[C@H](CN4CCN(Cc5cc6c(c(C(F)(F)F)c5)CN(c5cccc([C@]7(Cc8nncn8C)C[C@@H](C#N)C7)c5)C6=O)CC4)CC3)CC2)c(F)c2c1C(=O)N(C1CCC(=O)NC1=O)C2 (some centres unmarked) [Example 205, (1r,3r)-3-[(4-methyl-4H-1,2,4-triazol-3-yl)methyl]-3-(3-{1-oxo-6-[(4-{[(1r,4r)-4-({1-[2-(2,6-dioxopiperidin-3-yl)-4-fluoro-7-methyl-1-oxo-2,3-dihydro-1H-isoindol-5-yl]piperidin-4-yl}oxy)cyclohexyl]methyl}piperazin-1-yl)methyl]-4-(trifluoromethyl)-2,3-dihydro-1H-isoindol-2-yl}phenyl)cyclobutane-1-carbonitrile]
3 | 0.005 to 0.05 | 35 to 70 | – | – | Cc1cc(N2CCC(O[C@H]3CC[C@H](CN4CCC5(CC4)CN(c4cc6c(c(C(F)(F)F)c4)CN(c4cccc([C@]7(Cc8nncn8C)C[C@@H](C#N)C7)c4)C6=O)C5)CC3)CC2)c(F)c2c1C(=O)N(C1CCC(=O)NC1=O)C2 (some centres unmarked) [Example 187, (1r,3r)-3-[(4-methyl-4H-1,2,4-triazol-3-yl)methyl]-3-{3-[1-oxo-6-(7-{[(1r,4r)-4-({1-[2-(2,6-dioxopiperidin-3-yl)-4-fluoro-7-methyl-1-oxo-2,3-dihydro-1H-isoindol-5-yl]piperidin-4-yl}oxy)cyclohexyl]methyl}-2,7-diazaspiro[3.5]nonan-2-yl)-4-(trifluoromethyl)-2,3-dihydro-1H-isoindol-2-yl]phenyl}cyclobutane-1-carbonitrile]
4 | 0.005 to 0.05 | 35 to 70 | – | – | Cc1cc(N2CCC(CN3CC4(C3)CN(C3=CC5C(=O)N(c6cccc([C@]7(Cc8nncn8C)C[C@@H](C#N)C7)c6)CC5C(C(F)(F)F)=C3)C4)CC2)c(F)c2c1C(=O)N(C1CCC(=O)NC1=O)C2 (some centres unmarked) [Example 189, (1r,3r)-3-(3-{6-[6-({1-[2-(2,6-dioxopiperidin-3-yl)-4-fluoro-7-methyl-1-oxo-2,3-dihydro-1H-isoindol-5-yl]piperidin-4-yl}methyl)-2,6-diazaspiro[3.3]heptan-2-yl]-1-oxo-4-(trifluoromethyl)-2,3,3a,7a-tetrahydro-1H-isoindol-2-yl}phenyl)-3-[(4-methyl-4H-1,2,4-triazol-3-yl)methyl]cyclobutane-1-carbonitrile]
5 | 0.005 to 0.05 | > 70 | – | – | Cc1cc(N2CCC(O[C@H]3CC[C@H](CN4CCN(Cc5cc6c(c(C(F)(F)F)c5)CN(c5cccc(C7(Cc8nncn8C)CCC7)c5)C6=O)C(C)(C)C4)CC3)CC2)c(F)c2c1C(=O)N(C1CCC(=O)NC1=O)C2 (some centres unmarked) [Example 224, 3-[4-fluoro-7-methyl-1-oxo-5-(4-{[(1r,4r)-4-[(3,3-dimethyl-4-{[2-(3-{1-[(4-methyl-4H-1,2,4-triazol-3-yl)methyl]cyclobutyl}phenyl)-3-oxo-7-(trifluoromethyl)-2,3-dihydro-1H-isoindol-5-yl]methyl}piperazin-1-yl)methyl]cyclohexyl]oxy}piperidin-1-yl)-2,3-dihydro-1H-isoindol-2-yl]piperidine-2,6-dione]
6 | – | – | > 0.5 | – | Cn1cnnc1CC1(c2cccc(-n3cc4ccc(N5CC6(CCN(CC7CCN(c8ccc9c(c8Cl)CN(C8CCC(=O)NC8=O)C9=O)CC7)CC6)C5)cc4n3)c2)COC1 (centres unmarked) [Example 260, 3-{4-chloro-5-[4-({2-[2-(3-{3-[(4-methyl-4H-1,2,4-triazol-3-yl)methyl]oxetan-3-yl}phenyl)-2H-indazol-6-yl]-2,7-diazaspiro[3.5]nonan-7-yl}methyl)piperidin-1-yl]-1-oxo-2,3-dihydro-1H-isoindol-2-yl}piperidine-2,6-dione]

The next lines start with the compound.

Row | Compound | DC50 (Cbl-b [1]) [µM] | Dmax (Cbl-b [1]) [%] | DC50 (Cbl-b [2]) [µM] | Dmax (Cbl-b [2]; maximum degradation observed, read-out: Cbl-b Degredation Method B Dmax (%)) [%]
7 | Cn1cnnc1CC1(c2cccc(N3Cc4c(cc(CN5CC6(CCN(CC7CCN(c8ccc9c(c8F)CN(C8CCC(=O)NC8=O)C9=O)CC7)CC6)C5)cc4C(F)(F)F)C3=O)c2)COC1 (centres unmarked) [Example 25, 3-(4-fluoro-5-{4-[(2-{[2-(3-{3-[(4-methyl-4H-1,2,4-triazol-3-yl)methyl]oxetan-3-yl}phenyl)-3-oxo-7-(trifluoromethyl)-2,3-dihydro-1H-isoindol-5-yl]methyl}-2,7-diazaspiro[3.5]nonan-7-yl)methyl]piperidin-1-yl}-1-oxo-2,3-dihydro-1H-isoindol-2-yl)piperidine-2,6-dione] | 0.005 to 0.05 | < 35 | – | –
8 | Cn1cnnc1CC1(c2cccc(N3Cc4c(cc(N5CC6(CCN(C[C@H]7CC[C@H](OC8CCN(c9ccc%10c(c9Cl)CN(C9CCC(=O)NC9=O)C%10=O)CC8)CC7)CC6)C5)cc4C(F)(F)F)C3=O)c2)COC1 (some centres unmarked) [Example 184, 3-[4-chloro-1-oxo-5-(4-{[(1r,4r)-4-({2-[2-(3-{3-[(4-methyl-4H-1,2,4-triazol-3-yl)methyl]oxetan-3-yl}phenyl)-3-oxo-7-(trifluoromethyl)-2,3-dihydro-1H-isoindol-5-yl]-2,7-diazaspiro[3.5]nonan-7-yl}methyl)cyclohexyl]oxy}piperidin-1-yl)-2,3-dihydro-1H-isoindol-2-yl]piperidine-2,6-dione] | < 0.005 | > 70 | – | –
9 | Cc1cc(N2CCC(CN3CCC4(CC3)CN(c3cc5c(c(C(F)(F)F)c3)CN(c3cccc(C6(Cc7nncn7C)CCC6)c3)C5=O)C4)CC2)c(F)c2c1C(=O)N(C1CCC(=O)NC1=O)C2 (centres unmarked) [Example 190, 3-{4-fluoro-7-methyl-5-[4-({2-[2-(3-{1-[(4-methyl-4H-1,2,4-triazol-3-yl)methyl]cyclobutyl}phenyl)-3-oxo-7-(trifluoromethyl)-2,3-dihydro-1H-isoindol-5-yl]-2,7-diazaspiro[3.5]nonan-7-yl}methyl)piperidin-1-yl]-1-oxo-2,3-dihydro-1H-isoindol-2-yl}piperidine-2,6-dione] | 0.005 to 0.05 | > 70 | – | –
10 | Cn1cnnc1CC1(c2cccc(N3Cc4c(cc(CN5CCN(c6ccc7c(c6)C(=O)N(C6CCC(=O)NC6=O)C7=O)CC5)cc4C(F)(F)F)C3=O)c2)COC1 (centres unmarked) [Example 32, 2-(2,6-dioxopiperidin-3-yl)-5-(4-{[2-(3-{3-[(4-methyl-4H-1,2,4-triazol-3-yl)methyl]oxetan-3-yl}phenyl)-3-oxo-7-(trifluoromethyl)-2,3-dihydro-1H-isoindol-5-yl]methyl}piperazin-1-yl)-2,3-dihydro-1H-isoindole-1,3-dione] | – | – | 0.05 to 0.5 | > 70
11 | C[C@@H]1c2nc(N3CCC(O[C@H]4CC[C@H](CN5CCN(Cc6cc7c(c(C(F)(F)F)c6)CN(c6cccc(C8(Cc9nncn9C)CC(C#N)C8)c6)C7=O)C6(CC6)C5)CC4)CC3)ccc2C(=O)N1C1CCC(=O)NC1=O (single isomer, unassigned) [Example 305, (1r***,3r***)-3-[(4-methyl-4H-1,2,4-triazol-3-yl)methyl]-3-(3-{1-oxo-6-[(7-{[(1r**,4r**)-4-({1-[(7R*)-6-(2,6-dioxopiperidin-3-yl)-7-methyl-5-oxo-5H,6H,7H-pyrrolo[3,4-b]pyridin-2-yl]piperidin-4-yl}oxy)cyclohexyl]methyl}-4,7-diazaspiro[2.5]octan-4-yl)methyl]-4-(trifluoromethyl)-2,3-dihydro-1H-isoindol-2-yl}phenyl)cyclobutane-1-carbonitrile] | – | – | > 0.5 | –
